The target in data set [1] is Hsp90 Nuclear Binding Domain (NBD) (Aspergillus fumigatus, UniProt P40292). The data set is described as follows: Surface Plasmon Resonance (SPR) binding, A. fumigatus Hsp90 NBD. The settings on record: biotinylated Hsp90 NBD on streptavidin chip, 25° C., 1:1 binding model; NB undefined. In outline:
(§1)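 Biacore S200 at 25° C; AviTag-biotinylated recombinant Hsp90 NBD captured on streptavidin chip at 2000-2500 RU. Compound dilution series run in HBS-P pH 7.4 with 2% DMSO at 40 μL/min, 60 s association and 600 s dissociation. Sensorgrams fitted to a 1:1 binding model.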

For data set [2], the system named is CaCl2. Kind of data set: Antifungal sensitivity testing (broth microdilution MIC). The data set is classed as cell-based. The settings on record: 96-well broth microdilution. In outline:
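Broth microdilution MIC per a modified published protocol; compounds dissolved in DMSO, fluconazole in water; duplicates in at least two independent experiments. Fungicidal activity checked by spotting MIC-plate cultures onto YPD agar, read after 24 h at 30° C.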
Background: Dilution methods test growth across graded concentrations, often in twofold steps.

The target in data set [3] is Hsp90 Nuclear Binding Domain (NBD) (Candida albicans (strain SC5314 / ATCC MYA-2876) (Yeast), UniProt P46598). Kind of data set: Surface Plasmon Resonance (SPR) binding, C. albicans Hsp90 NBD. The settings on record: biotinylated Hsp90 NBD on streptavidin chip, 25° C., 1:1 binding model. The method, boiled down:
as §1

The subject of data set [4] is HepG2 cells. The data set is described as follows: Mammalian cell toxicity (Cell Titer-Glo). The data set is classed as cell-based. The procedure: Mammalian Cell Toxicity. HepG2 cells were seeded overnight at 500 cells/well in 384-well plate, then incubated with compounds (10-point concentration titration) for 48 h. Cell Titer-Glo® reagent ([…]) was added to each well and after 10-minute incubation at room temperature the luminescent signal was measured using an Envision plate reader (Perkin Elmer).

In brackets after ≈: the same amount, converted by molar mass.

13 compounds from patent US20240424113A1, “CONJUGATES COMPRISING ANTIFUNGALS AND HEAT SHOCK PROTEIN 90 (HSP90) INHIBITORS AND METHODS OF USE THEREOF” (Bright Angel Therapeutics Inc., priority 2021, published 2024) can be followed below.

Chain of Hsp90 Nuclear Binding Domain (NBD) (Candida albicans (strain SC5314 / ATCC MYA-2876) (Yeast), UniProt P46598) (P46598 1-218 limits assumed): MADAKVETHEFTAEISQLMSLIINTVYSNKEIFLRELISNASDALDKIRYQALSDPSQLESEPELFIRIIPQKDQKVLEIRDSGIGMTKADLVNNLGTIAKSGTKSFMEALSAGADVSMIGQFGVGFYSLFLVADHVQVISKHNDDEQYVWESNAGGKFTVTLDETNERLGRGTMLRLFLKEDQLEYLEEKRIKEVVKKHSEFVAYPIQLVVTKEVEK
Chain of Hsp90 Nuclear Binding Domain (NBD) (Aspergillus fumigatus, UniProt P40292) (P40292 whole entry, looked up, the tested form may be a part): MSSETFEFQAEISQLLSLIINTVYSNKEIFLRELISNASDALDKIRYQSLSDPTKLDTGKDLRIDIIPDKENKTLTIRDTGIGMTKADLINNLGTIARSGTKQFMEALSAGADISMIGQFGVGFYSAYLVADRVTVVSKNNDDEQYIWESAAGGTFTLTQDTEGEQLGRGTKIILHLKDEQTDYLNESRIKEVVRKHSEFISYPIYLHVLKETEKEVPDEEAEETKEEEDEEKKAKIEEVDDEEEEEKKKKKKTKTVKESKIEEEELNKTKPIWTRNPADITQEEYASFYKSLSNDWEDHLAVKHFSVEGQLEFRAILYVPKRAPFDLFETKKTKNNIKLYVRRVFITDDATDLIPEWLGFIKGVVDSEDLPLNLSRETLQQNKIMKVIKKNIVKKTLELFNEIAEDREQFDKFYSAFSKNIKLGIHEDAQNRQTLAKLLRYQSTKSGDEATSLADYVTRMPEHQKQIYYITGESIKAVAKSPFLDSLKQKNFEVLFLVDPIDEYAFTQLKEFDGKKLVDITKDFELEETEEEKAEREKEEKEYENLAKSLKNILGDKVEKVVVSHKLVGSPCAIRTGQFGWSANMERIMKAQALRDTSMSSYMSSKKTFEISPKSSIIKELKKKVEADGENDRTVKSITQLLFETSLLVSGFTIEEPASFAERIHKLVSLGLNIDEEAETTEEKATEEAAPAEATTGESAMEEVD

A word on the Kd: it is the free concentration of one partner at which half of the binding sites on the other are occupied at equilibrium, for simple one-to-one binding. For orientation: MIC50 means the lowest concentration that inhibits either 50% of growth or 50% of the strains tested, depending on the study. A lower MIC50 goes with greater potency. As to `Cc1ccc(-n2c(=O)c(N)nc3sc(C(=O)NC4CCN(CC(O)(Cn5cncn5)c5ccc(F)cc5F)CC4)cc32)cc1Oc1ccccc1` (stereo not drawn) [Compound I-12, 3-amino-N-(1-(2-(2,4-difluorophenyl)-2-hydroxy-3-(1H-1,2,4-triazol-1-yl)propyl)piperidin-4-yl)-1-(4-methyl-3-phenoxyphenyl)-2-oxo-1,2-dihydrothieno[2,3-b]pyrazine-6-carboxamide], the results for the Kd in data set [1] and in data set [3] were 0.431 µM and 0.146 µM, respectively. Moreover, the MIC50 in data set [2] (Table 4) and in data set [2] (Table 6) was 0.18 µM (≈ 0.128 µg/mL) each time. Moreover, the “HepG2 MIC50” value in data set [4] (Table 5, 48 h incubation) was above 10 µM; in data set [4] (Table 6, 48 h incubation), above 10 µM.
As to `Nc1nc2scc(C(=O)NC3CCN(CC(O)(Cn4cncn4)c4ccc(F)cc4F)CC3)c2n(-c2ccc3c(c2)N(c2ccccc2)CCO3)c1=O` (stereo not drawn) [Compound I-18, 3-amino-N-(1-(2-(2,4-difluorophenyl)-2-hydroxy-3-(1H-1,2,4-triazol-1-yl)propyl)piperidin-4-yl)-2-oxo-1-(4-phenyl-3,4-dihydro-2H-benzo[b][1,4]oxazin-6-yl)-1,2-dihydrothieno[2,3-b]pyrazine-7-carboxamide], the Kd in data set [1] amounted to 0.741 µM; in data set [3], 0.459 µM. Besides, the MIC50 in data set [2] (Table 4) and in data set [2] (Table 6) was 20 µM (≈ 14.8 µg/mL) in each case. For the same compound, the “HepG2 MIC50” value in data set [4] (Table 6, 48 h incubation) was above 50 µM.
Take `Nc1nc2sc(C(=O)NC3CCN(C[C@](O)(Cn4cncn4)c4ccc(F)cc4F)CC3)cc2n(-c2ccc3c(c2)N(c2ccccc2)CCC3)c1=O` [Compound I-21, (S)-3-amino-N-(1-(2-(2,4-difluorophenyl)-2-hydroxy-3-(1H-1,2,4-triazol-1-yl)propyl)piperidin-4-yl)-2-oxo-1-(1-phenyl-1,2,3,4-tetrahydroquinolin-7-yl)-1,2-dihydrothieno[2,3-b]pyrazine-6-carboxamide]: the dissociation constant Kd in data set [1] came out at 0.0373 µM; in data set [3] it was 0.0067 µM. In addition, the MIC50 came to 0.085 µM (≈ 0.0627 µg/mL) in data set [2] (Table 4) and 0.09 µM (≈ 0.0664 µg/mL) in data set [2] (Table 6). Moreover, the “HepG2 MIC50” value in data set [4] (Table 5, 48 h incubation) was above 50 µM; in data set [4] (Table 6, 48 h incubation), above 50 µM.
For the compound `Nc1nc2sc(C(=O)NC3CCN(C[C@](O)(Cn4cncn4)c4ccc(F)cc4F)CC3)cc2n(-c2ccc3ccn(-c4ccccc4)c3c2)c1=O` [Compound I-23, (S)-3-amino-N-(1-(2-(2,4-difluorophenyl)-2-hydroxy-3-(1H-1,2,4-triazol-1-yl)propyl)piperidin-4-yl)-2-oxo-1-(1-phenyl-1H-indol-6-yl)-1,2-dihydrothieno[2,3-b]pyrazine-6-carboxamide], the figures for the Kd in data set [1] and in data set [3] were 0.046 µM and 0.0286 µM, respectively. For the same compound, the MIC50 in data set [2] (Table 4) and in data set [2] (Table 6) was 0.35 µM (≈ 0.253 µg/mL) each time. Besides, the “HepG2 MIC50” value is above 50 µM in data set [4] (Table 5, 48 h incubation) and above 50 µM in data set [4] (Table 6, 48 h incubation).
In the case of `Nc1nc2sc(C(=O)NC[C@H]3CO[C@](Cn4cncn4)(c4ccc(F)cc4F)C3)cc2n(-c2ccc3c(c2)N(c2ccccc2)CCO3)c1=O` [Compound I-27, N-(((3S,5S)-5-((1H-1,2,4-triazol-1-yl)methyl)-5-(2,4-difluorophenyl)tetrahydrofuran-3-yl)methyl)-3-amino-2-oxo-1-(4-phenyl-3,4-dihydro-2H-benzo[b][1,4]oxazin-6-yl)-1,2-dihydrothieno[2,3-b]pyrazine-6-carboxamide], the Kd came to 0.0134 µM in data set [1] and 0.0092 µM in data set [3]. In addition, the MIC50 in data set [2] (Table 4) and in data set [2] (Table 6) was 2.5 µM (≈ 1.74 µg/mL) in each case. Also, in data set [4] (Table 6, 48 h incubation), the “HepG2 MIC50” value was above 10 µM.
As to `CC1(NC(=O)c2cc3c(nc(N)c(=O)n3-c3ccc4c(c3)N(c3ccccc3)CCO4)s2)CCN(CC(O)(Cn2cncn2)c2ccc(F)cc2F)CC1` (stereo not drawn) [Compound I-31, 3-amino-N-(1-(2-(2,4-difluorophenyl)-2-hydroxy-3-(1H-1,2,4-triazol-1-yl)propyl)-4-methylpiperidin-4-yl)-2-oxo-1-(4-phenyl-3,4-dihydro-2H-benzo[b][1,4]oxazin-6-yl)-1,2-dihydrothieno[2,3-b]pyrazine-6-carboxamide], the Kd in data set [1] stood at 0.0023 µM; in data set [3] it was 0.0003 µM. Besides, the MIC50 in data set [2] (Table 4) and in data set [2] (Table 6) was 1 µM (≈ 0.754 µg/mL) each time. In addition, the “HepG2 MIC50” value in data set [4] (Table 5, 48 h incubation) was 4.6 µM; in data set [4] (Table 6, 48 h incubation) it was 4.6 µM.
For `Nc1nc2sc(C(=O)NC3CCN(CC4COC(Cn5cncn5)(c5ccc(F)cc5F)C4)CC3)cc2n(-c2ccc3c(c2)N(c2ccccc2)CCO3)c1=O` (stereo not drawn) [Compound I-32, N-(1-((5-((1H-1,2,4-triazol-1-yl)methyl)-5-(2,4-difluorophenyl)tetrahydrofuran-3-yl)methyl)piperidin-4-yl)-3-amino-2-oxo-1-(4-phenyl-3,4-dihydro-2H-benzo[b][1,4]oxazin-6-yl)-1,2-dihydrothieno[2,3-b]pyrazine-6-carboxamide], the Kd in data set [1] stood at 0.0505 µM; in data set [3] it was 0.0036 µM. In addition, the MIC50 in data set [2] (Table 4) and in data set [2] (Table 6) was 2.5 µM (≈ 1.95 µg/mL) throughout. For the same compound, the “HepG2 MIC50” value in data set [4] (Table 6, 48 h incubation) amounted to 8.2 µM.
Regarding `Nc1nc2sc(C(=O)N[C@@H]3CCN(CCC(O)(Cn4cncn4)c4ccc(F)cc4F)C3)cc2n(-c2ccc3c(c2)N(c2ccccc2)CCO3)c1=O` (stereo partly drawn) [Compound I-36, 3-amino-N-((3R)-1-(3-(2,4-difluorophenyl)-3-hydroxy-4-(1H-1,2,4-triazol-1-yl)butyl)pyrrolidin-3-yl)-2-oxo-1-(4-phenyl-3,4-dihydro-2H-benzo[b][1,4]oxazin-6-yl)-1,2-dihydrothieno[2,3-b]pyrazine-6-carboxamide], the Kd came to 0.0037 µM in data set [1] and 0.0021 µM in data set [3]. In addition, the MIC50 in data set [2] (Table 4) and in data set [2] (Table 6) was 8 µM (≈ 5.92 µg/mL) each time. Besides, the “HepG2 MIC50” value in data set [4] (Table 6, 48 h incubation) was 1.9 µM.
In the case of `Nc1nc2sc(CNC3CCN(CC(O)(Cn4cncn4)c4ccc(F)cc4F)CC3)cc2n(-c2ccc3c(c2)N(c2ccccc2)CCO3)c1=O` (stereo not drawn) [Compound I-47, 3-amino-6-(((1-(2-(2,4-difluorophenyl)-2-hydroxy-3-(1H-1,2,4-triazol-1-yl)propyl)piperidin-4-yl)amino)methyl)-1-(4-phenyl-3,4-dihydro-2H-benzo[b][1,4]oxazin-6-yl)thieno[2,3-b]pyrazin-2(1H)-one], the dissociation constant (Kd) in data set [1] was determined as 0.55 µM; in data set [3], 0.289 µM. For the same compound, the MIC50 in data set [2] (Table 4) and in data set [2] (Table 6) was 1 µM (≈ 0.726 µg/mL) each time. Further, the “HepG2 MIC50” value in data set [4] (Table 5, 48 h incubation) was 4.4 µM; in data set [4] (Table 6, 48 h incubation), 4.4 µM.
For `CC1(NC(=O)c2cc3c(nc(N)c(=O)n3-c3ccc4c(c3)N(c3ccccc3)CCO4)s2)CCN(C[C@](O)(Cn2cncn2)c2ccc(F)cc2F)CC1` [Compound I-53, (S)-3-amino-N-(1-(2-(2,4-difluorophenyl)-2-hydroxy-3-(1H-1,2,4-triazol-1-yl)propyl)-4-methylpiperidin-4-yl)-2-oxo-1-(4-phenyl-3,4-dihydro-2H-benzo[b][1,4]oxazin-6-yl)-1,2-dihydrothieno[2,3-b]pyrazine-6-carboxamide], the dissociation constant (Kd) is 0.0236 µM in data set [1] and 0.0013 µM in data set [3]. Further, the MIC50 in data set [2] (Table 4) and in data set [2] (Table 6) was 1.5 µM (≈ 1.13 µg/mL) each time. Moreover, the “HepG2 MIC50” value in data set [4] (Table 5, 48 h incubation) is 4 µM; in data set [4] (Table 6, 48 h incubation), 4 µM.
On to `Nc1nc2sc(-c3noc(C(=O)NN4CCN(CC(O)(Cn5cncn5)c5ccc(F)cc5F)CC4)n3)cc2n(-c2ccc3c(c2)N(c2ccccc2)CCO3)c1=O` (stereo not drawn) [Compound I-54, 3-(3-amino-2-oxo-1-(4-phenyl-3,4-dihydro-2H-benzo[b][1,4]oxazin-6-yl)-1,2-dihydrothieno[2,3-b]pyrazin-6-yl)-N-(4-(2-(2,4-difluorophenyl)-2-hydroxy-3-(1H-1,2,4-triazol-1-yl)propyl)piperazin-1-yl)-1,2,4-oxadiazole-5-carboxamide], for which the Kd in data set [1] came to 0.339 µM; in data set [3], 0.0735 µM. For the same compound, the MIC50 in data set [2] (Table 4) and in data set [2] (Table 6) was 0.6 µM (≈ 0.485 µg/mL) in each case. Also, the “HepG2 MIC50” value in data set [4] (Table 5, 48 h incubation) is above 10 µM; in data set [4] (Table 6, 48 h incubation) it was above 10 µM.
On to `COC(=O)c1c(C(=O)NC2CCN(CC(O)(Cn3cncn3)c3ccc(F)cc3F)CC2)sc2nc(N)c(=O)n(-c3ccc4c(c3)N(c3ccccc3)CCO4)c12` (stereo not drawn) [Compound I-55, methyl 3-amino-6-((1-(2-(2,4-difluorophenyl)-2-hydroxy-3-(1H-1,2,4-triazol-1-yl)propyl)piperidin-4-yl)carbamoyl)-2-oxo-1-(4-phenyl-3,4-dihydro-2H-benzo[b][1,4]oxazin-6-yl)-1,2-dihydrothieno[2,3-b]pyrazine-7-carboxylate], for which the Kd in data set [1] came out at 0.314 µM; in data set [3] it was 0.318 µM. For the same compound, the MIC50 in data set [2] (Table 4) and in data set [2] (Table 6) was 9 µM (≈ 7.18 µg/mL) in each case. Besides, in data set [4] (Table 6, 48 h incubation), the “HepG2 MIC50” value is above 10 µM.
As for `CC(O)c1c(C(=O)NC2CCN(CC(O)(Cn3cncn3)c3ccc(F)cc3F)CC2)sc2nc(N)c(=O)n(-c3ccc4ccn(-c5ccccc5)c4c3)c12` (stereo not drawn) [Compound I-56, 3-amino-N-(1-(2-(2,4-difluorophenyl)-2-hydroxy-3-(1H-1,2,4-triazol-1-yl)propyl)piperidin-4-yl)-7-(1-hydroxyethyl)-2-oxo-1-(1-phenyl-1H-indol-6-yl)-1,2-dihydrothieno[2,3-b]pyrazine-6-carboxamide], the Kd in data set [1] came to 0.229 µM; in data set [3] it was 0.0646 µM. For the same compound, the MIC50 in data set [2] (Table 4) and in data set [2] (Table 6) was 3 µM (≈ 2.3 µg/mL) in each case. Further, the “HepG2 MIC50” value in data set [4] (Table 6, 48 h incubation) was above 10 µM.
